Measurements as given in patent US5502209A, “Benzopyrancarboxamide derivatives, salts thereof, process for the preparation of same and use thereof” (Sanwa Kagaku Kenkyusho Co., Ltd., priority 1994, dated 1996).
Counter-ions that a name gives are not always drawn.

Molecular target: T1, 5-HT4 receptor (Rattus norvegicus, UniProt Q62758)
T1 construct: a muscular sample of mucous membrane in esophgus exentrated from a rat; from tissue; host or cells: rat oesophagus, muscularis mucosae (isolated)
Test: Agonisting action to 5-HT4 receptor: relaxation of carbachol-contracted muscular sample of mucous membrane of rat esophagus (Baxter et al.)
Assay type: cell-based
Settings: carbachol contraction, read-out: P EC50 (negative logarithm of concentration causing 50% relaxation) (converted)
From the text: (Agonisting action to 5-HT4 receptor)
Pharmacol.", Vol. 343, page 439 (1991)!.
Namely, a relaxation of the Test and Control compounds in various concentration showing to carbachol contradiction of a muscular sample of mucous membrane in esophgus exentrated from a rat was checked to calculate a concentration causing 50% relaxation and compared with its negative logarithm (P EC50).

T1 sequence (Q62758 whole entry): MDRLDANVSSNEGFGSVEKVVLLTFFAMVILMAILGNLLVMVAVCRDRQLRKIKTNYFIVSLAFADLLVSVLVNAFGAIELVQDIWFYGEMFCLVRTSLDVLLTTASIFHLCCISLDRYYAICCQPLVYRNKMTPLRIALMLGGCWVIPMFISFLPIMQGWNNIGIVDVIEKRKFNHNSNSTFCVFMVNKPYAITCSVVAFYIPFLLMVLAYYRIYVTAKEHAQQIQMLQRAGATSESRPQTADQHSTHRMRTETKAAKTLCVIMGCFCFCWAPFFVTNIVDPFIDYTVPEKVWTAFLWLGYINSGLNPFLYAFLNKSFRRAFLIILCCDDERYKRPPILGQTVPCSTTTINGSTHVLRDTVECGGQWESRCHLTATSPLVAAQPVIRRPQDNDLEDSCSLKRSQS

Compound | EC50
Nc1c(Cl)cc(C(=O)NCCC23CCCN2CCC3)c2c1CCCO2 [Example 1, 5-Amino-N-2-(1-azabicyclo 3.3.0!octan-5-yl)ethyl!-6-chloro-3,4-dihydro-2H-1-benzopyran-8-carboxamide·1/2 fumarate] | 0.00501 µM
CC1CCc2c(N)c(Cl)cc(C(=O)NCCC34CCCN3CCC4)c2O1 (stereo not drawn) [Example 2, 5-Amino-N-2-(1-azabicyclo 3.3.0!octan-5-yl)ethyl!-6-chloro-3,4-dihydro-2-methyl-2H-1-benzopyran-8-carboxamide·1/2 fumarate] | 0.02 µM
Nc1c(Cl)cc(C(=O)NCCC23CCCN2CCC3)c2c1C=CCO2 [Example 3, 5-Amino-N-2-(1-azabicyclo 3.3.0!octan-5-yl)ethyl!-6-chloro-2H-1-benzopyran-8-carboxamide·1/2 fumarate] | 0.0251 µM
O=C(NCCC12CCCN1CCC2)c1cccc2c1OCCC2 [Example 4, N-2-(1-Azabicyclo 3.3.0!octan-5-yl)ethyl!-3,4-dihydro-2H-1-benzopyran-8-carboxamide·1/2 fumarate] | 12.6 µM
O=C(NCCC12CCCN1CCC2)c1ccc(Cl)c2c1OCCC2 [Example 5, N-2-(1-Azabicyclo 3.3.0!octan-5-yl)ethyl!-3,4-dihydro-5-chloro-2H-1-benzopyran-8-carboxamide· fumarate] | 25.1 µM
O=C(NCCC12CCCN1CCC2)c1cc(Cl)cc2c1OCCC2 [Example 6, N-2-(1-Azabicyclo 3.3.0!octan-5-yl)ethyl!-3,4-dihydro-6-chloro-2H-1-benzopyran-8-carboxamide·1/2 fumarate] | 12.6 µM
COc1cc2c(c(C(=O)NCCC34CCCN3CCC4)c1)OCCC2 [Example 7, N-2-(1-Azabicyclo 3.3.0!octan-5-yl)ethyl!-3,4-dihydro-6-methoxy-2H-1-benzopyran-8-carboxamide·1/2 fumarate] | 25.1 µM
Cc1ccc(C(=O)NCCC23CCCN2CCC3)c2c1CCCO2 [Example 8, N-2-(1-Azabicyclo 3.3.0!octan-5-yl)ethyl!-3,4-dihydro-5-methyl-2H-1-benzopyran-8-carboxamide·1/2 fumarate] | 20 µM
Cc1cc2c(c(C(=O)NCCC34CCCN3CCC4)c1)OCCC2 [Example 9, N-2-(1-Azabicyclo 3.3.0!octan-5-yl)ethyl!-3,4-dihydro-6-methyl-2H-1-benzopyran-8-carboxamide·1/2 fumarate] | 15.8 µM
CC(=O)Nc1c(Cl)cc(C(=O)NCCC23CCCN2CCC3)c2c1CCCO2 [Example 10, 5-Acetylamino-N-2-(1-azabicyclo 3.3.0!octan-5-yl)ethyl!-6-chloro-3,4-dihydro-2H-1-benzopyran-8-carboxamide· fumarate] | 7.94 µM

System: dopamine D2 receptor
Test: not given
Settings: rat, in vivo, po, 100 mg/kg
From the text: The compounds obtained by Examples as well as known compound (Metoclopramide) were selected as Test and Control Compounds, respectively. The compound was orally administered to rats to observe for 2 days general symptoms including catalepsy and blepharoptosis due to antagonistic action of the compound to dopamine D2 receptor.

Compound | influence to central nerve system due to anti-dopamine action
CCN(CC)CCNC(=O)c1cc(Cl)c(N)cc1OC [Metoclopramide, 4-amino-5-chloro-N-(2-diethylamino)ethyl!-2-methoxybenzamide] | somewhat remarkable influence was recognized

System: 5-HT4 receptor
Test: not given
Settings: known compound, as said in the art; cited from earlier work

Compound | agonisting action to 5-HT4 receptor
COc1cc(N)c(Cl)cc1C(=O)NC1CCN(CCCOc2ccc(F)cc2)CC1OC (stereo not drawn) [Cisapride] | strong agonisting action to 5-HT4 receptor
